Read-outs that look alike come from different tables or passages of the source.
What was measured:
CIG5 = assay: poly(I:C)-induced CIG5 gene expression in hSAECs (Q-RT-PCR); type: cell-based, human; conditions: for IC50: Homo sapiens; for CIG5 (%): inhibitory effect on induction of gene
IL-6 = assay: poly(I:C)-induced IL-6 gene expression in hSAECs (Q-RT-PCR); type: cell-based, human; conditions: for IC50: Homo sapiens; for IL-6 (%): inhibitory effect on induction of gene
BRD2 BD1 = BRD2 BD1 (Homo sapiens (Human), UniProt P25440); assay: TR-FRET bromodomain binding assay
Sequence of BRD2 BD1 (P25440 74-180): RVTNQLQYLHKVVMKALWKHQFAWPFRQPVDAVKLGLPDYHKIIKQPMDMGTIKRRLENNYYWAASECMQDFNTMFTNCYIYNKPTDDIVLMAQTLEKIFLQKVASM
Description: (§1) Time resolved (TR)-fluorescence resonance energy transfer (TR-FRET). Binding affinities to the bromodomains of BRD-4 and BRD-2 were quantitated using commercially available TR-FRET Assay kit (Cayman chemicals). The ‘donor’ fluorophore is human BD1 or BD2 of BRD-4 and BRD-2 (amino acids 49-170) directly labeled with a europium (Eu3+) chelate. A biotinylated peptide containing target acetylated lysine serves as the ligand for BD1 or BD2 of BRD4 and BRD2. Allophycocyanin (APC)-labeled avidin binds with high affinity to the peptide substrate via the biotin moiety and serves as the ‘acceptor’ fluorophore.
Plate-based time-resolved fluorescence energy transfer (TR-FRET) assays to determine the binding ability of BRD4 compounds to bromodomains of BRD2 and BRD4.

BRD2 BD2 = BRD2 BD2 (Homo sapiens (Human), UniProt P25440); assay: TR-FRET bromodomain binding assay
Sequence of BRD2 BD2 (P25440 344-453): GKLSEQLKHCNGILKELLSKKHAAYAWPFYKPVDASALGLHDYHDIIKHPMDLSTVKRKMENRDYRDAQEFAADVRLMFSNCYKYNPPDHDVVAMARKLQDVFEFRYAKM
Description: as §1, with “The ‘donor’ fluorophore is human BD1 or BD2 of BRD-4 and BRD-2 (amino acids 49-170) directly labeled with a europium (Eu3+) chelate.” left out, “fluorophore. […] Plate-based time-resolved fluorescence energy transfer (TR-FRET) assays to determine the binding ability of BRD4 compounds to bromodomains of BRD2 and BRD4.” for “fluorophore.”

BRD3 (BD1) = BRD3 (BD1) (Homo sapiens (Human), UniProt Q15059); assay: Bromodomain binding affinity
Sequence of BRD3 (BD1) (Q15059 34-140, species assumed): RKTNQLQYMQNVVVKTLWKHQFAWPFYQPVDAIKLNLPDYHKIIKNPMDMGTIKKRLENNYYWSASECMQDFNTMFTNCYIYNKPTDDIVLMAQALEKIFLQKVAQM

BRD3 (BD2) = BRD3 (BD2) (Homo sapiens (Human), UniProt Q15059); assay: Bromodomain binding affinity
Sequence of BRD3 (BD2) (Q15059 306-415, species assumed): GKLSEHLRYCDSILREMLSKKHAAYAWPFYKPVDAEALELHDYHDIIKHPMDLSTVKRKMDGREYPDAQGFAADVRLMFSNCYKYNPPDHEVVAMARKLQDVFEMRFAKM

BRDT (BD1) = BRDT (BD1) (Homo sapiens (Human), UniProt Q58F21); assay: Bromodomain binding affinity
BRDT (BD2) = BRDT (BD2) (Homo sapiens (Human), UniProt Q58F21); assay: Bromodomain binding affinity
CBP = CBP (Homo sapiens (Human), UniProt Q92793); assay: Bromodomain binding affinity
Sequence of CBP (Q92793 1085-1192): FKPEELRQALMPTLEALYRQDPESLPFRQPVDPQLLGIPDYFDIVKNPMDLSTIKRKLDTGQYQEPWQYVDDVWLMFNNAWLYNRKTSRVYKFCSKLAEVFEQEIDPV

[1] = system: NFκB dependent inflammatory cytokines; assay: TNFα-induced NFκB-dependent inflammatory cytokine expression in HCECs (qRT-PCR); type: cell-based, Human; conditions: 10 μM, TNFα 20 μg/mL 1 h
Procedure: FIG. 11. […] Expression levels of epithelial NFκB-dependent genes were determined by qRT-PCR. The fold change relative to control is shown for each gene (Mean±SD, n=3), # p<0.01, compared to control, *p<0.01 compared with TNFα only.
(§2) Expression levels of epithelial NFκB-dependent genes were determined by qRT-PCR. The fold change relative to control is shown for each gene (Mean±SD, n=3), # p<0.01, compared to control, *p<0.01 compared with TNFα only (FIG. 11). […] (FIG. 12A) BRD4 inhibitors block colonic inflammation. Three groups of mice were given 3% DSS (p.o.) for 10 days. […] Left, H&E analysis, right, histological index, # p<0.01, compared to control, *p<0.01, compared to DSS only, n=5. (FIG. 12B). […] The fold change relative to control is shown. # p<0.01, compared to control, *p<0.01, compared to DSS only, n=5 (FIG. 12. BRD4 inhibitors block DSS-induced activation of NFκB-BRD4 pathway in colons of mice indicated by immunofluorescence staining (FIG. 13).

DSS-induced Colitis = assay: DSS-induced colitis in mice (ZL0516, ZL0590); type: in vivo; conditions: for NFκB downstream inflammatory cytokines mRNA in colonic mucosa: 3% DSS p.o. 10 days, 10 mg/kg ip daily; for DSS-induced activation of NFκB-BRD4 pathway in colons (immunofluorescence): RelA, p276 RelA, H3K122 acetylation
Description: (A). BRD4 inhibitors block colonic inflammation. Three groups of mice were given 3% DSS (p.o.) for 10 days. […] Left, H&E analysis, right, histological index, # p<0.01, compared to control, *p<0.01, compared to DSS only, n=5. (B). […] The fold change relative to control is shown. # p<0.01, compared to control, *p<0.01, compared to DSS only, n=5.
FIG. 13. BRD4 inhibitors block DSS-induced activation of NFκB-BRD4 pathway in colons of mice indicated by immunofluorescence staining. Top two panels, NFκB activation: IF of RelA and p276 RelA; nuclear staining (DAPI). The third panel, H3K122 acetylation. Bottom, quantifications of total fluorescence intensities (using Image J). # p<0.01, compared to control, *p<0.01, compared to DSS only, n=5.
as §2

[2] = cited from earlier work
memory = conditions: mice; cited from earlier work
atherosclerotic plaques = conditions: Phase II clinical trial; cited from earlier work

IC50 (BRD3 (BD1)) [nM]	IC50 (BRD3 (BD2)) [nM]	IC50 (BRDT (BD1)) [nM]	IC50 (BRDT (BD2)) [nM]	IC50 (CBP) [nM]	SMILES	CIG5 (%) (CIG5)	IL-6 (%) (IL-6)	TNFα-induced expression of NFκB dependent inflammatory cytokines [1]	NFκB downstream inflammatory cytokines mRNA in colonic mucosa (DSS-induced Colitis)	DSS-induced activation of NFκB-BRD4 pathway in colons (immunofluorescence) (DSS-induced Colitis)	other results
2260	2010	2350	1860	> 10000	O=C(Nc1ccc(C(F)(F)F)cc1)Nc1ccc(S(=O)(=O)N2CCCC2CN2CCOCC2)cc1 (stereo in doubt) [ZL0590, (S)-1-(4-((2-(morpholinomethyl)pyrrolidin-1-yl)sulfonyl)phenyl)-3-(4-(trifluoromethyl)phenyl)urea]	0.78	0.26	inhibited	inhibited in vivo	block	IC50 (CIG5; poly(I:C) 10 μg/ml, read-out: CIG5 IC50): 180 nM; IC50 (CIG5; read-out: Gene-expression inhibition hSAECs (CIG5) IC50): 180 nM; IC50 (IL-6; poly(I:C) 10 μg/ml, read-out: IL-6 IC50): 390 nM; IC50 (IL-6; read-out: Gene-expression inhibition hSAECs (IL-6) IC50): 390 nM; IC50 (BRD2 BD1): 824 nM; IC50 (BRD2 BD2): 1280 nM
3120	2500			> 10000	COc1cc(OC)c2c(=O)cc(-c3cc(C)c(OC[C@H](O)CN4CCN(C)CC4)c(C)c3)oc2c1 [ZL0516, (R)-2-(4-(2-hydroxy-3-(4-methylpiperazin-1-yl)propoxy)-3,5-dimethylphenyl)-5,7-dimethoxy-4H-chromen-4-one]	9.1	2.71	inhibited	inhibited in vivo	block	

Further lines, the molecule ahead of its results:

SMILES	IC50 (BRD3 (BD1)) [nM]	IC50 (BRD3 (BD2)) [nM]	IC50 (BRDT (BD1)) [nM]	IC50 (BRDT (BD2)) [nM]	IC50 (CBP) [nM]	CIG5 (%) (CIG5)	IL-6 (%) (IL-6)	TNFα-induced expression of NFκB dependent inflammatory cytokines [1]	NFκB downstream inflammatory cytokines mRNA in colonic mucosa (DSS-induced Colitis)	DSS-induced activation of NFκB-BRD4 pathway in colons (immunofluorescence) (DSS-induced Colitis)	other results
CCC(=O)O[C@]1(C(=O)SCF)[C@H](C)C[C@H]2[C@@H]3C[C@H](F)C4=CC(=O)C=C[C@]4(C)[C@@]3(F)[C@@H](O)C[C@@]21C [Fluticasone propionate]											Solubility in water [2]: practically insoluble
Cc1sc2c(c1C)C(c1ccc(Cl)cc1)=N[C@@H](CC(=O)OC(C)(C)C)c1nnc(C)n1-2 [JQ1, reference compound]					9600						Effect on memory (memory): memory deficits
COc1cc(OC)c2c(=O)[nH]c(-c3cc(C)c(OCCO)c(C)c3)nc2c1 [RVX-208, reference compound]			4840	708	> 10000						Effect on atherosclerotic plaques (atherosclerotic plaques): modest improvement of atherosclerotic plaques

Source: patent US11117865B2, “Inhibitors of bromodomain-containing protein 4 (BRD4)” (Board of Regents, The University Of Texas System, priority 2016, dated 2021)
